Test results published in patent US20250346602A1, “LACTAM SUBSTITUTED IMIDAZOPYRIDAZINE IL-17A MODULATORS AND USES THEREOF” (DICE ALPHA, INC., priority 2022, published 2025).
pIC50: −log10 of the molar value.

Biological target: T1, IL-17A/A (Homo sapiens, UniProt Q16552)
T1 construct: purchased Genscript Z03228
T1 sequence (Q16552 24-155): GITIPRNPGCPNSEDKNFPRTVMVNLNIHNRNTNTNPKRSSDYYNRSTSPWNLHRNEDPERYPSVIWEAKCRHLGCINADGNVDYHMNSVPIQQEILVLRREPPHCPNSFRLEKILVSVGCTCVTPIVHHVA
Test: IL-17A/A HEK-Blue cell assay
Assay type: cell-based
Conditions: HEK-Blue IL-17A reporter cell line (HEK 293), IL-17A/A stimulation, 20 hours incubation, SEAP read at A630
Description: The HEK-Blue IL-17A reporter cell line (Fisher #NC1408637) was used for cell-based IL-17A/A inhibition assays. Cells were grown and prepared for assays according to the manufacturer's instructions. This cell line consists of HEK 293 cells that were designed to expressed IL-17RA, IL-17RC, and the ActI adapter molecule, the combination of which, when stimulated by IL-17A/A activates a NFκB promoter and drives expression of a recombinant Secreted Alkaline Phosphatase (SEAP) gene protein. Media from the cells is then added to a development reagent (Quanti-Blue Substrate, Fisher #NC9711613), and read at A630.
Compounds were titrated in DMSO, with a top final compound concentration of 10 uM, 1 uM, or 0.3 uM, and added to the cells immediately before adding IL-17A/A (Genscript #Z03228). The cells, compound, and IL-17A/A were then incubated for 20 hours before media was removed for SEAP analysis. The resulting inhibition curve was then analyzed using Graphpad Prism 7.0, and IC50 values were determined using a 4-parameter nonlinear fit. DMSO was added to a universal final concentration of 0.1% to optimize background.

| Compound | pIC50 |
| --- | --- |
| O=C(N[C@H](c1cn2nc(CC3C[C@H](C(F)(F)F)CNC3=O)ccc2n1)[C@@H]1CCCC(F)(F)C1)c1nonc1C1CC1 (stereo partly drawn) [Compound 156, 4-cyclopropyl-N—((S)-((R)-3,3-difluorocyclohexyl)(6-(((5S)-2-oxo-5-(trifluoromethyl)piperidin-3-yl)methyl)imidazo[1,2-b]pyridazin-2-yl)methyl)-1,2,5-oxadiazole-3-carboxamide] | 6.00 to 7.00 |
| CC[C@@H](c1ccc(F)cc1)[C@H](NC(=O)c1ccnn1CC)c1cn2ncc(CC3C[C@@H](C(F)(F)F)NC3=O)cc2n1 (single isomer, unassigned) [Compound 217] | < 6.00 |
| O=C(N[C@H](c1cn2nc(CC3C[C@H](C(F)(F)F)CNC3=O)ccc2n1)[C@H]1CCCC(F)(F)C1)c1conc1C1CC1 (stereo partly drawn) [Compound 157, 3-cyclopropyl-N-((1S)—((S)-3,3-difluorocyclohexyl)(6-(((5S)-2-oxo-5-(trifluoromethyl)piperidin-3-yl)methyl)imidazo[1,2-b]pyridazin-2-yl)methyl)isoxazole-4-carboxamide] | > 7.00 |
| CCn1nccc1C(=O)N[C@H](c1cn2nc(CC3C[C@@H](C(F)(F)F)CNC3=O)c(N(C)C3CCOCC3)cc2n1)C1CCC(F)(F)CC1 (single isomer, unassigned) [Compound 94] | > 7.00 |
| O=C(N[C@H](c1cn2nc(CC3C[C@@H](C(F)(F)F)CNC3=O)ccc2n1)C1CCC(F)(F)CC1)c1conc1CF (stereo partly drawn) [Compound 119, N-((1S)-(4,4-difluorocyclohexyl)(6-(((5R)-2-oxo-5-(trifluoromethyl)piperidin-3-yl)methyl)imidazo[1,2-b]pyridazin-2-yl)methyl)-3-(fluoromethyl)isoxazole-4-carboxamide] | 6.00 to 7.00 |
| CC(C)c1nonc1C(=O)N[C@H](c1cn2nc(CC3C[C@@H](C(F)(F)F)CNC3=O)ccc2n1)[C@H]1CCCC(F)(F)C1 (stereo partly drawn) [Compound 150, N-((1S)—((S)-3,3-difluorocyclohexyl)(6-(((5R)-2-oxo-5-(trifluoromethyl)piperidin-3-yl)methyl)imidazo[1,2-b]pyridazin-2-yl)methyl)-4-isopropyl-1,2,5-oxadiazole-3-carboxamide] | > 7.00 |
| CC1(c2nocc2C(=O)N[C@H](c2cn3nc(CC4C[C@@H](C(F)(F)F)CNC4=O)ccc3n2)C2CCC(F)(F)CC2)CC1 (stereo partly drawn) [Compound 123, N-((1S)-(4,4-difluorocyclohexyl)(6-(((5R)-2-oxo-5-(trifluoromethyl)piperidin-3-yl)methyl)imidazo[1,2-b]pyridazin-2-yl)methyl)-3-(1-methylcyclopropyl)isoxazole-4-carboxamide] | 6.00 to 7.00 |
| CC(C)c1nocc1C(=O)N[C@H](c1cn2nc(CC3C[C@@H](C(F)(F)F)CNC3=O)ccc2n1)C1CCC(F)(F)CC1 (stereo partly drawn) [Compound 102, N-((1S)-(4,4-difluorocyclohexyl)(6-(((5R)-2-oxo-5-(trifluoromethyl)piperidin-3-yl)methyl)imidazo[1,2-b]pyridazin-2-yl)methyl)-3-isopropylisoxazole-4-carboxamide] | > 7.00 |
| CCn1nccc1C(=O)N[C@H](c1cn2nc(C[C@H]3C[C@@H](C(F)(F)F)CNC3=O)c(C#N)cc2n1)C1CCC(F)(F)CC1 [Compound 81] | 6.00 to 7.00 |
| CCn1nccc1C(=O)N[C@H](c1cn2nc(CC3C[C@@H](C(F)(F)F)CNC3=O)c(C(=O)O)cc2n1)C1CCC(F)(F)CC1 (stereo partly drawn) [Compound 187, 2-((S)-(4,4-difluorocyclohexyl)(1-ethyl-1H-pyrazole-5-carboxamido)methyl)-6-(((5R)-2-oxo-5-(trifluoromethyl)piperidin-3-yl)methyl)imidazo[1,2-b]pyridazine-7-carboxylic acid] | 6.00 to 7.00 |
| CC[C@@H](c1ccc(F)cc1)[C@H](NC(=O)c1ccnn1CC)c1cn2nc(C[C@H]3C[C@@H](C(F)(F)F)NC3=O)ccc2n1 [Compound 22, 1-ethyl-N-((1S,2S)-2-(4-fluorophenyl)-1-(6-(((3R,5S)-2-oxo-5-(trifluoromethyl)pyrrolidin-3-yl)methyl)imidazo[1,2-b]pyridazin-2-yl)butyl)-1H-pyrazole-5-carboxamide] | 6.00 to 7.00 |
| CCn1nccc1C(=O)N[C@H](c1cn2nc(CC3C[C@@H](C(F)(F)F)CNC3=O)c(Cl)cc2n1)C1CCC(F)(F)CC1 (single isomer, unassigned) [Compound 80] | 6.00 to 7.00 |
| Cc1nonc1C(=O)N[C@H](c1cn2nc(CC3CCCNC3=O)ccc2n1)C1CCCCCC1 (stereo partly drawn) [Compound 2, N-((1S)-cycloheptyl(6-((2-oxopiperidin-3-yl)methyl)imidazo[1,2-b]pyridazin-2-yl)methyl)-4-methyl-1,2,5-oxadiazole-3-carboxamide] | < 6.00 |
| O=C(N[C@H](c1cn2nc(CC3C[C@@H](C(F)(F)F)CNC3=O)ccc2n1)C1CCC(F)(F)CC1)c1conc1CCF (stereo partly drawn) [Compound 110, N-((1S)-(4,4-difluorocyclohexyl)(6-(((5R)-2-oxo-5-(trifluoromethyl)piperidin-3-yl)methyl)imidazo[1,2-b]pyridazin-2-yl)methyl)-3-(2-fluoroethyl)isoxazole-4-carboxamide] | 6.00 to 7.00 |
| CCn1nccc1C(=O)N[C@H](c1cn2nc(CC3C[C@@H](C(F)(F)F)CNC3=O)c(C(C)OC)cc2n1)C1CCC(F)(F)CC1 (stereo partly drawn) [Compound 183, N-((1S)-(4,4-difluorocyclohexyl)(7-(1-methoxyethyl)-6-(((5R)-2-oxo-5-(trifluoromethyl)piperidin-3-yl)methyl)imidazo[1,2-b]pyridazin-2-yl)methyl)-1-ethyl-1H-pyrazole-5-carboxamide] | > 7.00 |

Next, values leading:

| pIC50 | Compound |
| --- | --- |
| 6.00 to 7.00 | CCn1nccc1C(=O)N[C@H](c1cn2nc(CC3C(=O)NCCC3C)ccc2n1)[C@H]1CC[C@H](C)CC1 (single isomer, unassigned) [Compound 54] |
| < 6.00 | CCn1nccc1C(=O)N[C@H](c1cn2nc(CC3CC(C)(C)CNC3=O)ccc2n1)[C@H]1CC[C@H](C)CC1 (stereo partly drawn) [Compound 58, N-((1S)-(6-((5,5-dimethyl-2-oxopiperidin-3-yl)methyl)imidazo[1,2-b]pyridazin-2-yl)((1r,4S)-4-methylcyclohexyl)methyl)-1-ethyl-1H-pyrazole-5-carboxamide] |
| 6.00 to 7.00 | CCn1nccc1C(=O)N[C@H](c1cn2nc(C(C)C3C[C@@H](C(F)(F)F)CNC3=O)ccc2n1)C(C1CC1)C1CC1 (single isomer, unassigned) [Compound 55] |
| 6.00 to 7.00 | O=C(N[C@H](c1cn2nc(CC3C[C@@H](C(F)(F)F)CNC3=O)ccc2n1)C1CCC(F)(F)CC1)c1ccnn1C1CC1(F)F (single isomer, unassigned) [Compound 99] |
| < 6.00 | CCn1nccc1C(=O)N[C@H](c1cn2nc(CC3CC(F)(F)CNC3=O)c(NC)cc2n1)C1CCC(F)(F)CC1 (single isomer, unassigned) [Compound 74] |
| 6.00 to 7.00 | CCn1nccc1C(=O)NC(c1cn2nc(CC3CC(C)CNC3=O)ccc2n1)C1CCC(C)CC1 (single isomer, unassigned) [Compound 51] |
| 6.00 to 7.00 | CCn1nccc1C(=O)N[C@H](c1cn2nc(CC3CC(C4CC4)CNC3=O)ccc2n1)C1CCC(F)(F)CC1 (single isomer, unassigned) [Compound 71] |
| 6.00 to 7.00 | CCn1nccc1C(=O)N[C@H](c1cn2nc(CC3C[C@@H](C(F)(F)F)CNC3=O)ccc2n1)C(C1CC1)C1CC1 (stereo partly drawn) [Compound 96, N-((1S)-2,2-dicyclopropyl-1-(6-(((5R)-2-oxo-5-(trifluoromethyl)piperidin-3-yl)methyl)imidazo[1,2-b]pyridazin-2-yl)ethyl)-1-ethyl-1H-pyrazole-5-carboxamide] |
| > 7.00 | O=C(N[C@H](c1cn2nc(CC3C[C@@H](C(F)(F)F)CNC3=O)ccc2n1)C1CCC(F)(F)CC1)c1ccnn1C1CC1(F)F (single isomer, unassigned) [Compound 98] |
| > 7.00 | CCc1nonc1C(=O)N[C@H](c1cn2nc(CC3C[C@@H](C(F)(F)F)CNC3=O)ccc2n1)[C@H]1CC[C@H](C)CC1 (stereo partly drawn) [Compound 141, 4-Ethyl-N-((1S)-((1R.4S)-4-methylcyclohexyl)(6-(((5R)-2-oxo-5-(trifluoromethyl)piperidin-3-yl)methyl)imidazo[1,2-b]pyridazin-2-yl)methyl)-1,2,5-oxadiazole-3-carboxamide] |
| > 7.00 | CCn1nccc1C(=O)N[C@H](c1cn2nc(CC3C[C@@H](C(F)(F)F)CNC3=O)ccc2n1)[C@@H]1CCCC(F)(F)C1 (stereo partly drawn) [Compound 143, N-((1S)—((R)-3,3-difluorocyclohexyl)(6-(((5R)-2-oxo-5-(trifluoromethyl)piperidin-3-yl)methyl)imidazo[1,2-b]pyridazin-2-yl)methyl)-1-ethyl-1H-pyrazole-5-carboxamide] |
| 6.00 to 7.00 | CCn1nccc1C(=O)N[C@H](c1cn2nc(CC3CC(F)(F)CNC3=O)c(NC)cc2n1)C1CCC(F)(F)CC1 (single isomer, unassigned) [Compound 73] |
| 6.00 to 7.00 | CCn1nccc1C(=O)N[C@H](c1cn2nc(CC3C[C@@H](C(F)(F)F)CNC3=O)ccc2n1)C1CCC2(CC1)CC2 (single isomer, unassigned) [Compound 188] |
| 6.00 to 7.00 | CCn1nccc1C(=O)N[C@H](c1cn2nc(CC3CC(F)(F)CNC3=O)ccc2n1)C1CCCCCC1 (single isomer, unassigned) [Compound 10, N-((1 S)-cycloheptyl(6-((5,5-difluoro-2-oxopiperidin-3-yl)methyl)imidazo[1,2-b]pyridazin-2-yl)methyl)-1-ethyl-1H-pyrazole-5-carboxamide] |
